Results: paper PMC4231751, “Highly potent dUTPase inhibition by a bacterial repressor protein reveals a novel mechanism for gene expression control” (Nucleic Acids Research, 2014)

Target: T1, Φ11 dUTPase (Φ11DUT) (Staphylococcus phage phi 11, UniProt Q8SDV3)
T1 construct: tag-free, expressed from pETDuet-1; Q-sepharose and Superdex 75; homotrimer
Experiment: phenol red proton release assay, […] nm
Format: biochemical
Details: 30 μM dUTP, 10 nM enzyme, 1 mM Hepes pH 7.5, 5 mM MgCl2, 150 mM KCl, 293 K

O=c1ccn([C@H]2C[C@H](O)[C@@H](COP(=O)(O)OP(=O)(O)OP(=O)(O)O)O2)c(=O)[nH]1 [dUTP]
phenol red proton release assay, 559 nm: Proton release during the transformation of dUTP into dUMP and PPi was followed continuously
